Test results as given in ChEMBL document CHEMBL4507268 (2021).

Experiments:
Settings in all cases: Compound concentration 1.0 uM
[1] = biological target: Serine/threonine-protein kinase pim-2 (Homo sapiens) (UniProt Q9P1W9)
[2] = biological target: G protein-coupled receptor kinase 6 (Homo sapiens) (UniProt P43250)
[3] = biological target: Platelet-derived growth factor receptor alpha (Homo sapiens) (UniProt P16234)
[4] = biological target: CDK6/cyclin D3 (Homo sapiens) (UniProt P30281+Q00534)
[5] = biological target: RAC-gamma serine/threonine-protein kinase (Homo sapiens) (UniProt Q9Y243)
[6] = biological target: Dual specificity protein kinase CLK1 (Homo sapiens) (UniProt P49759)
[7] = biological target: T1, Calcium/calmodulin-dependent protein kinase type IV (Homo sapiens) (UniProt Q16566)
T1 sequence (whole entry): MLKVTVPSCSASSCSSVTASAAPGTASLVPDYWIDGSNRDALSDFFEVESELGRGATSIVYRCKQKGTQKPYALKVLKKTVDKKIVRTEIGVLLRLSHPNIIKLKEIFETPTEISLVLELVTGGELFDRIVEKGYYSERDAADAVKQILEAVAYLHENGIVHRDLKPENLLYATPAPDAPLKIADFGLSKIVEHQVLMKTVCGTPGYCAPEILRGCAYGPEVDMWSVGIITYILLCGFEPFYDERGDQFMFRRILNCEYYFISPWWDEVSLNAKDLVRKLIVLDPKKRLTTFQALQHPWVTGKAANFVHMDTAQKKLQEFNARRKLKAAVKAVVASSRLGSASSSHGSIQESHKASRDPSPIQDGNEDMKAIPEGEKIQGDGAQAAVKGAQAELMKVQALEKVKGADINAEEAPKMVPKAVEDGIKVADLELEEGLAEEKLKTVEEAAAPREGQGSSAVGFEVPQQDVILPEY

[8] = biological target: Fibroblast growth factor receptor 2 (Homo sapiens) (UniProt P21802)
[9] = biological target: Phosphatidylinositol 4-phosphate 3-kinase C2 domain-containing subunit alpha (Homo sapiens) (UniProt O00443)
[10] = biological target: Tyrosine-protein kinase CSK (Homo sapiens) (UniProt P41240)
[11] = biological target: Calcium/calmodulin-dependent protein kinase type II subunit delta (Homo sapiens) (UniProt Q13557)
[12] = biological target: SRSF protein kinase 2 (Homo sapiens) (UniProt P78362)
[13] = biological target: T2, Dual specificity tyrosine-phosphorylation-regulated kinase 2 (Homo sapiens) (UniProt Q92630)
T2 sequence (whole entry): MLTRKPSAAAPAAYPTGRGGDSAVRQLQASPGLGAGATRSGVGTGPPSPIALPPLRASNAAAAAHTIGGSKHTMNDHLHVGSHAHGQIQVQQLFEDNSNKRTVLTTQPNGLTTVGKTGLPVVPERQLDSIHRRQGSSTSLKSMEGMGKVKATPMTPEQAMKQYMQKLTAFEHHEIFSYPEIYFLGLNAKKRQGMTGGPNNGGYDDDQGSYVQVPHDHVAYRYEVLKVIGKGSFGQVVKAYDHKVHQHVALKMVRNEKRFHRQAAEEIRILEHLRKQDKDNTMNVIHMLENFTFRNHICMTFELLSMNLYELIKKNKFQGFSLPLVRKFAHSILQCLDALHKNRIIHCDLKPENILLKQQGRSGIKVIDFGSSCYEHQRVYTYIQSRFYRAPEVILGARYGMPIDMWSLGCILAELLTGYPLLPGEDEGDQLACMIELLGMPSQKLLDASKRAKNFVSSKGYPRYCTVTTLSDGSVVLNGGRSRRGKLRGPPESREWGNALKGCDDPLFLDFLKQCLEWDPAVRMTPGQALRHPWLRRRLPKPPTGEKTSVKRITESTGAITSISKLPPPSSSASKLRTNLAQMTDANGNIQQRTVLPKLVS

[14] = biological target: Calcium/calmodulin-dependent protein kinase type II subunit gamma (Homo sapiens) (UniProt Q13555)
[15] = biological target: T3, TGF-beta receptor type-1 (Homo sapiens) (UniProt P36897)
T3 sequence (whole entry): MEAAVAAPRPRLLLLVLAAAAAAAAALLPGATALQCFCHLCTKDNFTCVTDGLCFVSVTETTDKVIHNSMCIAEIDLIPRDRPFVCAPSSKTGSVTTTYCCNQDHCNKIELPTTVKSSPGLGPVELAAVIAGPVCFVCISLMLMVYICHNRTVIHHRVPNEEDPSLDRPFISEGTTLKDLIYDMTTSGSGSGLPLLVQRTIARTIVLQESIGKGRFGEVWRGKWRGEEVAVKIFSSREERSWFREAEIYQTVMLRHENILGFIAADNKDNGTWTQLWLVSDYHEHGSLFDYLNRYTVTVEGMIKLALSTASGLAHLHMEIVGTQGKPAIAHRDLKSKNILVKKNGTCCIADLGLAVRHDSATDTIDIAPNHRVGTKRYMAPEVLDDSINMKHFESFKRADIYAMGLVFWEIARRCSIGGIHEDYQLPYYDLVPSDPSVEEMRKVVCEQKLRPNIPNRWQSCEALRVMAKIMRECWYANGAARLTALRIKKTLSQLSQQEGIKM

[16] = biological target: T4, Mitogen-activated protein kinase 13 (Homo sapiens) (UniProt O15264)
T4 sequence (whole entry): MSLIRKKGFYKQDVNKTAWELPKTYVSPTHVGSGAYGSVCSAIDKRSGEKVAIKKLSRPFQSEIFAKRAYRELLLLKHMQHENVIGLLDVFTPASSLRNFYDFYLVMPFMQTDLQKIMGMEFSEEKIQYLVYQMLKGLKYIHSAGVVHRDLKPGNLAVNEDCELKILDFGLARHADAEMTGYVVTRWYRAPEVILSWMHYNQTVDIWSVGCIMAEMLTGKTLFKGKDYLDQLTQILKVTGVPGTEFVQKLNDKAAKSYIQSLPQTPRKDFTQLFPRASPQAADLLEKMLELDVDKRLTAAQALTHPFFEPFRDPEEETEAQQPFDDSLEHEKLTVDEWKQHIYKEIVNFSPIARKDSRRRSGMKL

[17] = biological target: Receptor-interacting serine/threonine-protein kinase 2 (Homo sapiens) (UniProt O43353)
[18] = biological target: CDK7/Cyclin H/MNAT1 (Homo sapiens) (UniProt P51946+P50613+P51948)

Measured: % residual kinase activity

Sequence of Fibroblast growth factor receptor 2 (Homo sapiens) (P21802 22-821 limits assumed): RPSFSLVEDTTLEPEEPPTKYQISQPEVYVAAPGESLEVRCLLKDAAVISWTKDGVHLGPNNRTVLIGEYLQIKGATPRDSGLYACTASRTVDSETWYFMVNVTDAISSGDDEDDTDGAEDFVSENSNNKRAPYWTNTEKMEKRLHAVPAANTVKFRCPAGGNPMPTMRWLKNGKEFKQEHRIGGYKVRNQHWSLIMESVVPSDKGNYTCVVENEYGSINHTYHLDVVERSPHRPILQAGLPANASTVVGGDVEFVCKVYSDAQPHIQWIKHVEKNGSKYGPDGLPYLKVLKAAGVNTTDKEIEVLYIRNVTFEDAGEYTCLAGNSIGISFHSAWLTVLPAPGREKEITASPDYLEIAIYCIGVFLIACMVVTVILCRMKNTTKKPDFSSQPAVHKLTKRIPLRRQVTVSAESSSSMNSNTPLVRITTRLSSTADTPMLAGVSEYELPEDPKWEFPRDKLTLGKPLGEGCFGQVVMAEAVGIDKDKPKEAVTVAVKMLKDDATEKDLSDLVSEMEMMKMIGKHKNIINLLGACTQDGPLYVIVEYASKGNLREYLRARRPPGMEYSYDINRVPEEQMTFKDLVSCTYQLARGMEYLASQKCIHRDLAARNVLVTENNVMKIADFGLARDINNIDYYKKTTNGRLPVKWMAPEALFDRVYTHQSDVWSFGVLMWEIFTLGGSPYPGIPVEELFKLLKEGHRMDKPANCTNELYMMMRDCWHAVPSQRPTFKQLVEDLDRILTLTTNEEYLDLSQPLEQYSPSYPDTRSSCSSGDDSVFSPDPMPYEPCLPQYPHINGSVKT
Sequence of Tyrosine-protein kinase CSK (Homo sapiens) (P41240 2-450 limits assumed): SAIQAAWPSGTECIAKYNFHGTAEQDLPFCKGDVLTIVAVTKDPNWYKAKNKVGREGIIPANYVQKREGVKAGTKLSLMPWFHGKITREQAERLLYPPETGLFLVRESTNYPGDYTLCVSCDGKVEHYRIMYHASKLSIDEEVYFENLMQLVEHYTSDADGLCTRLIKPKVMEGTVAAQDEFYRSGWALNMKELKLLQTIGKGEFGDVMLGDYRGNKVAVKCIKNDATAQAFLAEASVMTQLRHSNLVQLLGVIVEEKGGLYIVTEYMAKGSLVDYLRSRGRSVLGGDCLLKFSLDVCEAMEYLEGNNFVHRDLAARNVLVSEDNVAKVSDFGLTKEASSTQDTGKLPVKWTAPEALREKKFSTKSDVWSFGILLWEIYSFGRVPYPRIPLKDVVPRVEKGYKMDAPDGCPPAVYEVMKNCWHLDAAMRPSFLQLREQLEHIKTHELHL
Sequence of Calcium/calmodulin-dependent protein kinase type II subunit delta (Homo sapiens) (Q13557 whole entry): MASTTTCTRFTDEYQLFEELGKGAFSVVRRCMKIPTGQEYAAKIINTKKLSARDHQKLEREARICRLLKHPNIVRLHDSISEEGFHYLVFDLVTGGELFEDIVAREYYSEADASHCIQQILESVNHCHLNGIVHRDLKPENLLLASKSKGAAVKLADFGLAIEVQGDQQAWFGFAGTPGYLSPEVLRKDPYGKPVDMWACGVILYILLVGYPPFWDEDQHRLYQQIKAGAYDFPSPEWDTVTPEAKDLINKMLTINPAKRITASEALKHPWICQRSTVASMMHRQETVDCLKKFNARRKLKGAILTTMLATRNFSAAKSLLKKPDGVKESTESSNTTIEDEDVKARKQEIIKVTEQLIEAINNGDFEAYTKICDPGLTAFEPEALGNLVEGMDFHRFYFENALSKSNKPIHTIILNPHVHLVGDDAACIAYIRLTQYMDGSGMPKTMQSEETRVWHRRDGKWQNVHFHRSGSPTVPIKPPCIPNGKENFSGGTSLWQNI
Sequence of Platelet-derived growth factor receptor alpha (Homo sapiens) (P16234 whole entry): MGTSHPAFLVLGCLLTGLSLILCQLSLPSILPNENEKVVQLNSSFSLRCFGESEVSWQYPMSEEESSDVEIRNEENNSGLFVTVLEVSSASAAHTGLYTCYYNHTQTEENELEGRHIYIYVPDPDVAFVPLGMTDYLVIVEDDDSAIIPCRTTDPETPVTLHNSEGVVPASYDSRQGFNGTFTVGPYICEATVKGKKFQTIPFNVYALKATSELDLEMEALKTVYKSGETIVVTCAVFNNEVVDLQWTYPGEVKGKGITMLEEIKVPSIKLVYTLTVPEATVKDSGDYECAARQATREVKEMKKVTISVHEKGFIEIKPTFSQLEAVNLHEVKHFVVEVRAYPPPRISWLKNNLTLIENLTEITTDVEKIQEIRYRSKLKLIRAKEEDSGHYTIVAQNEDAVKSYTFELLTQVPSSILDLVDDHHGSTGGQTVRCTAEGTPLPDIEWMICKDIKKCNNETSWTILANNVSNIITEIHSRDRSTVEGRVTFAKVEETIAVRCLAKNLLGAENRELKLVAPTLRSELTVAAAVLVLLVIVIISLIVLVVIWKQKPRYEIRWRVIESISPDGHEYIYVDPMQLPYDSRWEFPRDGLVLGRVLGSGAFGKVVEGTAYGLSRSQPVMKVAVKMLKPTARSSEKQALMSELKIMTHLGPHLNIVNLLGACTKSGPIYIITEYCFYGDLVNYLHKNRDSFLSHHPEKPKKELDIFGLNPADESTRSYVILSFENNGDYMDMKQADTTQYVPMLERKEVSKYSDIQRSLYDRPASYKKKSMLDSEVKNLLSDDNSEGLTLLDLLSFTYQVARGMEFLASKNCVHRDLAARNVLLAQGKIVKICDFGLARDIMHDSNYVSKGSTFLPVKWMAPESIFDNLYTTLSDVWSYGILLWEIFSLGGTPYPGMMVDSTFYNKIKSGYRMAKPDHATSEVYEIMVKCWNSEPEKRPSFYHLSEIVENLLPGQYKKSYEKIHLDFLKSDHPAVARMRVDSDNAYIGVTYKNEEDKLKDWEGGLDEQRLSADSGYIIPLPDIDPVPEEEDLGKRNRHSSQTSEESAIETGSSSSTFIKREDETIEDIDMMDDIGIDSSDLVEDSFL
Sequence of Calcium/calmodulin-dependent protein kinase type II subunit gamma (Homo sapiens) (Q13555 whole entry): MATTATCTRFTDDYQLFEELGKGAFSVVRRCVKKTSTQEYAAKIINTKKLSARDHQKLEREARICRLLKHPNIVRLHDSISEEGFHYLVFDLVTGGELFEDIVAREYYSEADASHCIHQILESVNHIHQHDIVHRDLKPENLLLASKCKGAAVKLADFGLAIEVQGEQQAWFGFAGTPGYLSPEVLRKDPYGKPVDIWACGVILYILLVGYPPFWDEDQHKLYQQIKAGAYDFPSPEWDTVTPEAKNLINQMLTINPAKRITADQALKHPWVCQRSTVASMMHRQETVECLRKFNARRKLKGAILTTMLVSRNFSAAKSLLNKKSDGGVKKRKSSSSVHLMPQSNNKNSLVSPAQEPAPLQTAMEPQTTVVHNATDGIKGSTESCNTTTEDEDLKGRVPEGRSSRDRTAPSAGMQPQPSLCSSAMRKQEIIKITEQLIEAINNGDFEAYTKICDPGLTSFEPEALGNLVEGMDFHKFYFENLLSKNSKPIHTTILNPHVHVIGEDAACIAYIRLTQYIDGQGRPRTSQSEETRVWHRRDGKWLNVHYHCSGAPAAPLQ
Sequence of Dual specificity protein kinase CLK1 (Homo sapiens) (P49759 whole entry, looked up): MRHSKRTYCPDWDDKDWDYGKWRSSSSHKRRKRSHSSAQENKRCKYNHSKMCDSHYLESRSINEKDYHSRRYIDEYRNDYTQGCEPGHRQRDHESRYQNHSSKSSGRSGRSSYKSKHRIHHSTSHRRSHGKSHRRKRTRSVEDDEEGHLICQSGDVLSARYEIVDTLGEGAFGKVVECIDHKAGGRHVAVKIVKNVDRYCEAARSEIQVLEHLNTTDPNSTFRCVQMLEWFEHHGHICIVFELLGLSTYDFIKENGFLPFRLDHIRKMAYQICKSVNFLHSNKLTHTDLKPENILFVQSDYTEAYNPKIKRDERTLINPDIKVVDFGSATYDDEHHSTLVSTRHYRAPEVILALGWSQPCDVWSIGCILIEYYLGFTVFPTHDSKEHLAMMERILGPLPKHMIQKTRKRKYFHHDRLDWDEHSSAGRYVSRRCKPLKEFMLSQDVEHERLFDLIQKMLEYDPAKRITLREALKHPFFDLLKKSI
Sequence of SRSF protein kinase 2 (Homo sapiens) (P78362 whole entry, looked up): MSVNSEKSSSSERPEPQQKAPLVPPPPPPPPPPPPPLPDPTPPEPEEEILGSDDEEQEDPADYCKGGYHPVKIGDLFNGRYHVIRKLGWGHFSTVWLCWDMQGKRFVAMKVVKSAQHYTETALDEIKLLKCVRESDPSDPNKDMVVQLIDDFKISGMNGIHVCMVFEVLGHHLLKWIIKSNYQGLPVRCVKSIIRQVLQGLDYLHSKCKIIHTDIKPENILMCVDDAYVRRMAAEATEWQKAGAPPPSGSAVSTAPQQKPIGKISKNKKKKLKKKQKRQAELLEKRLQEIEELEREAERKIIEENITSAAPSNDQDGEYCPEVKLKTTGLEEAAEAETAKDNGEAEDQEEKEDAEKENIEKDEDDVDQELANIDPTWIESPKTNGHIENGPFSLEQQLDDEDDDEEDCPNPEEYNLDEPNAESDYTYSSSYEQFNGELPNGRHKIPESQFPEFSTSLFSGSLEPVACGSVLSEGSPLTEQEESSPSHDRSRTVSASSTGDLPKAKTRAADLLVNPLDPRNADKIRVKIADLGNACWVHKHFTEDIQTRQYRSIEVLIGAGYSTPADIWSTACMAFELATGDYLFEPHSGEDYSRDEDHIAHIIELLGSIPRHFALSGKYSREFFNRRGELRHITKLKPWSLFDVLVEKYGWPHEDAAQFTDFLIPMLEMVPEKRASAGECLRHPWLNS
Sequence of RAC-gamma serine/threonine-protein kinase (Homo sapiens) (Q9Y243 whole entry): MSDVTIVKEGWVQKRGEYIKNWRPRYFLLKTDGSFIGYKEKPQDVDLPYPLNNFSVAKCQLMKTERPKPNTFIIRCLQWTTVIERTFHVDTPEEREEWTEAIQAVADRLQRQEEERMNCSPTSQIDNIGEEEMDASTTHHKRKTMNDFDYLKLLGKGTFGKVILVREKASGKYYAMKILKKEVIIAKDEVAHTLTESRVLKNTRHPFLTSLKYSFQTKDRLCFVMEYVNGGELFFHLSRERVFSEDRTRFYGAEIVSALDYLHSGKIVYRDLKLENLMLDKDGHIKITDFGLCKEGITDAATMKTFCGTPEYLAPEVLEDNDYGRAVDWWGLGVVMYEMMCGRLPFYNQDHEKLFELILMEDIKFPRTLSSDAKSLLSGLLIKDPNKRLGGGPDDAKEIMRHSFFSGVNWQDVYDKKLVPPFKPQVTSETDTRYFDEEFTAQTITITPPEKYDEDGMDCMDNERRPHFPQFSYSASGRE

CN1CCN(c2cnc3c(C4CCN(C(=O)c5ccc(OC(F)(F)F)cc5N)CC4)ncnc3c2)CC1 [BAY-885]
inactive: [1] 110% | [2] 111% | [3] 105% | [4] 96% | [5] 113% | [6] 105% | [7] 96% | [8] 107% | [9] 96% | [10] 102% | [11] 95% | [12] 99% | [13] 105% | [14] 93% | [15] 81% | [16] 112% | [17] 101% | [18] 99%
